This is an account of results in patent publication US9662327B2 (AGIOS PHARMACEUTICALS, INC, priority 2011, dated 2017).

The target of the first test is IDH1 R132H (Homo sapiens (Human), UniProt O75874, R132H). In words: Assays for IDH1 R132H Inhibitors (NADPH/aKG, resazurin detection). Type of test: biochemical. The settings on record: IDH1 R132H enzyme, Table 2; read-out: IDHR132H Activity. The essentials: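 Mutant enzyme in 150 mM NaCl, 10 mM MgCl2, 20 mM Tris pH 7.5, 0.03% BSA; compound in DMSO added to substrate mix of 8 uM NADPH and 2 mM aKG. Reaction ran 50 min at room temperature, then resazurin detection mix (30 μM) added for 5 min at room temperature.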
IDH1 R132H, sequence (O75874 whole entry R132H): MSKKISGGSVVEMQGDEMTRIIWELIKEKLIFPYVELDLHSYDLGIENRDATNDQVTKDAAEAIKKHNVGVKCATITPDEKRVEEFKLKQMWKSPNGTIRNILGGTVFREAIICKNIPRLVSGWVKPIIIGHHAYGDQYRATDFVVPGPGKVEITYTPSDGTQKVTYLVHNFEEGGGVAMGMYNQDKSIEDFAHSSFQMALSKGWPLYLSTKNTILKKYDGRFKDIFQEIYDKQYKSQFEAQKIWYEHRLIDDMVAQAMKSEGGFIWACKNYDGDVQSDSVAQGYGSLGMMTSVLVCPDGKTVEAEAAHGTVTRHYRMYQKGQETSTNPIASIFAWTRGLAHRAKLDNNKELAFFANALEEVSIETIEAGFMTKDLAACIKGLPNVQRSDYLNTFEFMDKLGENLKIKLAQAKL
(Resazurin is reduced to fluorescent resorufin, in cell work by metabolically active cells.)
In the case of `N#Cc1c(N2CCN(C(=O)Cc3ccccc3)CC2)nc(C2CCCCC2)c2c1CCOC2` [Compound 131, 8-cyclohexyl-6-(4-(2-phenylacetyl)piperazin-1-yl)-3,4-dihydro-1H-pyrano[3,4-c]pyridine-5-carbonitrile], the IC50 lay in the range of 1000 to 10000 nM. Still for that read-out and setting: to `CC(C)[C@@H]1CN(c2nc(C3CC3)c3c(c2C#N)CC(C)(C)OC3)CCN1C(=O)CC1CC1` [Compound 382, (R)-8-cyclopropyl-6-(4-(2-cyclopropylacetyl)-3-isopropylpiperazin-1-yl)-3,3-dimethyl-3,4-dihydro-1H-pyrano[3,4-c]pyridine-5-carbonitrile] belongs less than 500 nM.

In the case of `C[C@@H]1CN(c2nc(C3CCCCC3)c3c(c2C#N)CC(C)(C)OC3)CCN1C(=O)Cc1ccccc1` [Compound 152, (R)-8-cyclohexyl-3,3-dimethyl-6-(3-methyl-4-(2-phenylacetyl)piperazin-1-yl)-3,4-dihydro-1H-pyrano[3,4-c]pyridine-5-carbonitrile], the IC50 was 1000 to 10000 nM. Same read-out and setting: in the case of `CC(C)[C@@H]1CN(c2nc(C3CC3)c3c(c2C#N)CC(C)(C)OC3)CCN1C(=O)COc1cccnc1` [Compound 399, (R)-8-cyclopropyl-6-(3-isopropyl-4-(2-(pyridin-3-yloxy)acetyl)piperazin-1-yl)-3,3-dimethyl-3,4-dihydro-1H-pyrano[3,4-c]pyridine-5-carbonitrile] it was 1000 to 10000 nM; in that of `CC(C)c1nc(N2CCN(C(=O)c3ccoc3)[C@H](C)C2)c(C#N)c2c1COC(C)(C)C2` [Compound 149, (R)-6-(4-(furan-3-carbonyl)-3-methylpiperazin-1-yl)-8-isopropyl-3,3-dimethyl-3,4-dihydro-1H-pyrano[3,4-c]pyridine-5-carbonitrile], 1000 to 10000 nM; in that of `CC(C)c1nc(N2CC(C)N(C(=O)NC3CCCCC3)C(C)C2)c(C#N)c2c1COCC2` (stereo not drawn) [Compound 108, 4-(5-cyano-8-isopropyl-3,4-dihydro-1H-pyrano[3,4-c]pyridin-6-yl)-N-cyclohexyl-2,6-dimethylpiperazine-1-carboxamide], 1000 to 10000 nM. In the case of `C[C@@H]1CN(c2nc(C3CCCCC3)c3c(c2C#N)CCOC3)CCN1C(=O)Cc1ccccc1F` [Compound 188, (R)-8-cyclohexyl-6-(4-(2-(2-fluorophenyl)acetyl)-3-methylpiperazin-1-yl)-3,4-dihydro-1H-pyrano[3,4-c]pyridine-5-carbonitrile], the IC50 was in the range of 1000 to 10000 nM. On the same count and under the same terms, to `CC(C)[C@@H]1CN(c2nc(C3CC3)c3c(c2C#N)CC(C)(C)OC3)CCN1C(=O)Cc1ccccc1F` [Compound 228] belongs 1000 to 10000 nM.

On to `Cc1ccc(-c2nc(N3CC(C)N(C(=O)c4ccco4)C(C)C3)c(C#N)c3c2COCC3)cc1` (stereo not drawn) [Compound 112], for which the IC50 lay within 1000 to 10000 nM. On the same count and under the same terms, in the case of `COC(=O)CC(=O)N1CCN(c2nc(C3CC3)c3c(c2C#N)CC(C)(C)OC3)C[C@H]1C(C)C` [Compound 409, (R)-methyl 3-(4-(5-cyano-8-cyclopropyl-3,3-dimethyl-3,4-dihydro-1H-pyrano[3,4-c]pyridin-6-yl)-2-isopropylpiperazin-1-yl)-3-oxopropanoate] it was less than 500 nM; in that of `Cc1nccn1CC(=O)N1CCN(c2nc(C3CC3)c3c(c2C#N)CC(C)(C)OC3)C[C@H]1C(C)C` [Compound 380, (R)-8-cyclopropyl-6-(3-isopropyl-4-(2-(2-methyl-1H-imidazol-1-yl)acetyl)piperazin-1-yl)-3,3-dimethyl-3,4-dihydro-1H-pyrano[3,4-c]pyridine-5-carbonitrile], 1000 to 10000 nM; in that of `CC1CN(c2nc(C3CCCCC3)c3c(c2C#N)CCOC3)CCN1C(=O)c1ccc2[nH]ccc2c1` (stereo not drawn) [Compound 134, 6-(4-(1H-indole-5-carbonyl)-3-methylpiperazin-1-yl)-8-cyclohexyl-3,4-dihydro-1H-pyrano[3,4-c]pyridine-5-carbonitrile], 1000 to 10000 nM.

Regarding `COCCC(=O)N1[C@H](C)CN(c2nc(C3CC3)c3c(c2C#N)CC(C)(C)OC3)C[C@@H]1C` [Compound 356], the IC50 is 1000 to 10000 nM.

For `CC(C)[C@@H]1CN(c2nc(C3CC3)c3c(c2C#N)CC(C)(C)OC3)CCN1C(=O)NCCc1ccccc1` [Compound 286], the IC50 was in the range of 1000 to 10000 nM. For `CC(C)c1nc(N2CCN(C(=O)Cc3ccccn3)[C@H](C(C)C)C2)c(C#N)c2c1COC(C)(C)C2` [Compound 214, (R)-8-isopropyl-6-(3-isopropyl-4-(2-(pyridin-2-yl)acetyl)piperazin-1-yl)-3,3-dimethyl-3,4-dihydro-1H-pyrano[3,4-c]pyridine-5-carbonitrile], the IC50 is 500 to 1000 nM. The same measure, in the same setting: in the case of `COc1ccc(OC(=O)N2CCN(c3nc(C4CC4)c4c(c3C#N)CC(C)(C)OC4)C[C@H]2C(C)C)cc1` [Compound 337, (R)-4-methoxyphenyl 4-(5-cyano-8-cyclopropyl-3,3-dimethyl-3,4-dihydro-1H-pyrano[3,4-c]pyridine-6-yl)-2-isopropylpiperazine-1-carboxylate] it was 1000 to 10000 nM; in that of `CC[C@@H]1CN(c2nc(C3CC3)c3c(c2C#N)CC(C)(C)OC3)CCN1C(=O)c1cscn1` [Compound 293], 1000 to 10000 nM; in that of `COc1cccc(CC(=O)N2CCN(c3nc(C4CCCCC4)c4c(c3C#N)CCOC4)C[C@H]2C)c1` [Compound 189, (R)-8-cyclohexyl-6-(4-(2-(3-methoxyphenyl)acetyl)-3-methylpiperazin-1-yl)-3,4-dihydro-1H-pyrano[3,4-c]pyridine-5-carbonitrile], 1000 to 10000 nM.

On to `CC1(C)Cc2c(C#N)c(N3CCN(C(=O)c4ccco4)[C@H](c4ccccc4)C3)nc(C3CC3)c2CO1` [Compound 272], for which the IC50 lay in the range of 500 to 1000 nM. The same measure, in the same setting: to `CC(C)[C@@H]1CN(c2nc(C3CC3)c3c(c2C#N)CC(C)(C)OC3)CCN1C(=O)CCl` [Compound 317, (R)-6-(4-(2-chloroacetyl)-3-isopropylpiperazin-1-yl)-8-cyclopropyl-3,3-dimethyl-3,4-dihydro-1H-pyrano[3,4-c]pyridine-5-carbonitrile] belongs less than 500 nM; to `Cc1ncoc1C(=O)N1CCN(c2nc(C(C)C)c3c(c2C#N)CC(C)(C)OC3)C[C@H]1C(C)C` [Compound 213, (R)-8-isopropyl-6-(3-isopropyl-4-(4-methyloxazole-5-carbonyl)piperazin-1-yl)-3,3-dimethyl-3,4-dihydro-1H-pyrano[3,4-c]pyridine-5-carbonitrile], 1000 to 10000 nM.

In the case of `CC(C)c1nc(N2CCN(C(=O)c3cccs3)[C@H](C)C2)c(C#N)c2c1COC(C)(C)C2` [Compound 246, (R)-8-isopropyl-3,3-dimethyl-6-(3-methyl-4-(thiophene-2-carbonyl)piperazin-1-yl)-3,4-dihydro-1H-pyrano[3,4-c]pyridine-5-carbonitrile], the IC50 is 1000 to 10000 nM. For the compound `CC(C)[C@@H]1CN(c2nc(C3CC3)c3c(c2C#N)CC(C)(C)OC3)CCN1C(=O)COc1cccc(F)c1` [Compound 384], the IC50 was 1000 to 10000 nM.

Still in this test, the particulars now being: IDH1 R132H enzyme, Table 3; read-out: R132H IC50.
As to `CC(C)[C@@H]1CN(c2nc(C3CC3)c3c(c2C#N)CC(C)(C)OC3)CCN1C(=O)CCc1nnco1` [Compound 448, (R)-6-(4-(3-(1,3,4-oxadiazol-2-yl)propanoyl)-3-isopropylpiperazin-1-yl)-8-cyclopropyl-3,3-dimethyl-3,4-dihydro-1H-pyrano[3,4-c]pyridine-5-carbonitrile], the IC50 is 500 to 1000 nM.
